Test [1] relates to HeLa cells. In words: Lactate levels in culture media of HeLa cells (BioVision kit). In kind it is cell-based. Particulars: 20 μM. As for the experimental part: FIG. 14. Lactate levels in the culture media of HeLa cells incubated with 20 μM Compound (1). Lactate levels were assayed with a BioVision kit (Catalog #K607-100).
Test [2] has as its system HeLa cells. Description: Apoptosis induction in HeLa cells (FACS, propidium iodide and annexin V). It counts as cell-based. Particulars: Homo sapiens, 48 hr incubation. As for the experimental part:
FIG. 12. Apoptosis induction in HeLa cells following 48 hr incubation with Compound (1) IC50=70 nM. Apoptosis was evaluated by FACS, labeling the cells with propidium iodide and annexin V.
FIG. 13. Apoptosis induction in HeLa cells following 48 hr incubation with Compound (1). IC50=70 nM. Apoptosis was evaluated by FACS, labeling the cells with propidium iodide and annexin V.

We go through one compound from US12527782B2, “Use of hexokinase 2/mitochondria-detaching compounds for treating hexokinase-2 (HK2)-expressing cancers” (Vidac Pharma Ltd., priority 2016, dated 2026).

Regarding `O=C(N1CCN(c2ccccc2)CC1)N1c2ccccc2Oc2ccccc21` [Compound (1)], the “lactate levels in the culture media” value in the test on HeLa cells [1] is on record as “lowered lactate levels”. The compound further yielded an IC50 with HeLa cells [2] of 70 nM.
